Here are results for five compounds from patent publication US20120190669A1, “OXINDOLE COMPOUNDS” (CYLENE PHARMACEUTICALS, INC., priority 2008, published 2012).

The test system of one experiment is MV-4-11. Kind of experiment: Alamar Blue cell proliferation assay, MV-4-11. The note with it: Homo sapiens, MV4-11, Table 4, read-out: AB: MV-4-11. The class given is cell-based. On the procedure: (§1) A representative cell-proliferation assay protocol using Alamar Blue dye (stored at 4° C., use 20 ul per well) is described hereafter.
(§2) 96-Well Plate Setup and Compound Treatment
(§3) a. Split and trypsinize cells.
(§4) b. Count cells using hemocytometer.
(§5) c. Plate 4,000-5,000 cells per well in 100 μl of medium and seed into a 96-well plate according to the following plate layout. Add cell culture medium only to wells B10 to B12. Wells B1 to B9 have cells but no compound added.
(§6) d. Add 100 μl of 2× drug dilution to each well in a concentration shown in the plate layout above. At the same time, add 100 μl of media into the control wells (wells 1310 to B12). Total volume is 200 μl/well.
(§7) e. Incubate four (4) days at 37° C., 5% CO2 in a humidified incubator.
(§8) f. Add 20 μl Alamar Blue reagent to each well.
(§9) g. Incubate for four (4) hours at 37° C., 5% CO2 in a humidified incubator.
(§10) h. Record fluorescence at an excitation wavelength of 544 nm and emission wavelength of 590 nm using a microplate reader.
(§11) In the assays, cells are cultured with a test compound for approximately four days, the dye is then added to the cells and fluorescence of […] dye is detected after approximately four hours. Different types of cells can be utilized in the assays (e.g., HCT-116 human colorectal carcinoma cells, PC-3 human prostatic cancer cells and MiaPaca human pancreatic carcinoma cells).
A general note: Resazurin is reduced to fluorescent resorufin, in cell work by metabolically active cells.

The test system of a further experiment is BxPC3. In words: Alamar Blue cell proliferation assay, BxPC3. The class given is cell-based. The note with it: Homo sapiens, BXPC-3, Table 4, read-out: AB: BxPC3. How it is done:
as §1, §2, §3, §4, §5, §6, §7, §8, §9, §10, §11

For another experiment, the system named is phospho BAD. In words: phospho BAD cell-based data. Conditions: Table 4.
The subject of another experiment is K-562. In words: Alamar Blue cell proliferation assay, K-562. The class given is cell-based. Conditions: Homo sapiens, K562, Table 4, read-out: AB: K-562. On the procedure: as §1, §2, §3, §4, §5, §6, §7, §8, §9, §10, §11
The subject of a further experiment is MDAMB-231. In words: Alamar Blue cell proliferation assay, MDAMB-231. The class given is cell-based. The note with it: Homo sapiens, MDA-MB-231, Table 4, read-out: AB: MDAMB231. On the procedure: as §1, §2, §3, §4, §5, §6, §7, §8, §9, §10, §11
The next experiment concerns phospho FLT3. In words: phospho FLT3 cell-based data. Conditions: Table 4.
Experiment [1] deals with leukemic cells from AML patients. The note with it: Fedorov et al., PNAS 104(51); cited from earlier work.
The next experiment relates to MV-4-11 (AML) xenograft. The note with it: 2008 AACR Annual Meeting, Abstract No. 4974; cited from earlier work.
The test system of another experiment is MOLM-13 (AML) xenograft. Conditions: 2008 AACR Annual Meeting, Abstract No. 4974; cited from earlier work.
For another experiment, the target named is recombinant human PIM2 (Homo sapiens, UniProt Q9P1W9). In words: PIM-2 assay (radiometric). The note with it: Table 8; read-out: PIM2 IC50. The class given is biochemical. On the procedure:
Test compounds dissolved and diluted in DMSO ([…]) were added to a reaction mixture comprising […] of 5× Reaction Buffer (40 mM MOPS pH 7.0, 5 mM EDTA), […] of recombinant human PIM2 solution (4 ng PIM-2 dissolved in dilution buffer (20 mM MOPS pH 7.0; EDTA 1 mM; 5% Glycerol; 0.01% Brij 35; […]; […] 2-mercaptoethanol; 1 mg/ml BSA)) and 8 ul of water. Reactions were initiated by the addition of 10 ul of ATP Solution (49% (15 mM MgCl2; 75 uM ATP) 1% ([γ-33P]ATP: Stock 1 mCi/100 μl; 3000 Ci/mmol (Perkin Elmer)) and 10 ul of substrate peptide solution ([…], dissolved in water at a concentration of 1 mM), Reactions were maintained for 10 min at 30° C. The reactions were quenched with 100 ul of 0.75% Phosphoric acid, then transferred to and filtrered through a Phosphocellulose filter plate (Millipore, MSPH-N6B-50). After washing each well 4 times with 0.75% Phosphoric acid, scintillation fluid (20 uL) was added to each well and the residual radioactivity was measured using a Wallac […] counter.

The next experiment concerns the target T1, Pim-3 (h) (Homo sapiens, UniProt Q86V86).
T1 construct: purchased Millipore (printed 'Millopore'; assay run as a service at the vendor)
In words: PIM-3 assay run at Millipore. The class given is biochemical. The note with it: Table 8; read-out: PIM3 IC50. On the procedure:
The PIM-3 assay was run at Millopore. The following is the assay as described in the Millopore protocol guide. […] (specific activity approx. 500 cpm/pmol, concentration as required). The reaction is initiated by the addition of the MgATP mix. After incubation for 40 minutes at room temperature, the reaction is stopped by the addition of 5 μL of a 3% phosphoric acid solution. 10 μL of the reaction is then spotted onto a P30 filtermat and washed three times for 5 minutes in 75 mM phosphoric acid and once in methanol prior to drying and scintillation counting.

Sequence of recombinant human PIM2 (Q9P1W9 whole entry): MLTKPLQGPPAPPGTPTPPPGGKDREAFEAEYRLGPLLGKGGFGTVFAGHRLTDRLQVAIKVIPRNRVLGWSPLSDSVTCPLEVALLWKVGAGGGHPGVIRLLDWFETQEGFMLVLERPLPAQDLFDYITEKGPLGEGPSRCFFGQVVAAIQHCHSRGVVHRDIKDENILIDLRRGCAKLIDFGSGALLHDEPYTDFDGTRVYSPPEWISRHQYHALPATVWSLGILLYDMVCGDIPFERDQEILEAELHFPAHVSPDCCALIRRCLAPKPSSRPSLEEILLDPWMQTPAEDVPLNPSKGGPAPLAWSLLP

Consider `C/C(=C1\C(=O)Nc2ccc(Cl)cc21)c1ccc(-c2cccc(C(=O)N3CCCN(C)CC3)c2)o1`, for which the IC50 is 178 nM in the experiment with MV-4-11; 785 nM with BxPC3; 1760 nM in the experiment with phospho BAD; 777 nM with K-562; 816 nM in the experiment with MDAMB-231; 9060 nM in the experiment with phospho FLT3.

Take `CN(C)C[C@@H]1CCn2cc(c3ccccc32)C2=C(C(=O)NC2=O)c2cn(c3ccccc23)CCO1` [Ly5333′531]: the “cell growth and cell death in leukemic cells from AML patients” value in [1] is “suppressed cell growth and induced cell death”.

In the case of `CN1CCC(CNc2ccc3ncc(-c4cccc(OC(F)(F)F)c4)n3n2)CC1` [SGI-1776], the “tumor regression in MV-4-11 (AML) xenograft model” value in the experiment with MV-4-11 (AML) xenograft was “significant tumor regression”. Also, the “tumor regression in MOLM-13 (AML) xenograft model” value in the experiment on MOLM-13 (AML) xenograft is given as “significant tumor regression”.

With `C/C(=C1\C(=O)Nc2ccc(Cl)cc21)c1ccc(-c2ccc(C(=O)N3CCCN(C)CC3)cc2)o1` [drawing 336], the IC50 on recombinant human PIM2 was less than 500 nM; on Pim-3 (h), less than 1000 nM.

Take `CN1CCCN(C(=O)c2ccc(-c3ccc(/C=C4/C(=O)Nc5ccc(Cl)cc54)o3)cc2)CC1` [drawing 337]: the IC50 was less than 500 nM on recombinant human PIM2 and less than 1000 nM on Pim-3 (h).
